Test results published in paper PMC6952399, “Structures of lipoprotein signal peptidase II from Staphylococcus aureus complexed with antibiotics globomycin and myxovirescin” (Nature Communications, 2020).

Tests used:
[1] = biological target: T1, LspMrs N52Q (Staphylococcus aureus, UniProt Q6GHN9, N52Q); test: Gel-shift peptidase assay, LspMrs N52Q mutant; type: biochemical, methicillin-resistant Staphylococcus aureus
T1 construct: MGSS-hexahistidine-SSGR-TEV site (ENLYFQ) (N, cleaved yes); made in house; host or cells: E. coli C43 (DE3)
Experimental: (§1) LspA mutant genes (N52A, N52Q, G54A, G54P, R110A, R110K, D118N, N133A, N133Q and D136N) were obtained by site-directed mutagenesis of the wild-type lspA construct in pETDuet. Mutagenesis was performed using the Q5® Site-Directed Mutagenesis Kit (New England Biolabs) and specific primers are listed in Supplementary Table 5. The correct mutations were confirmed by sequencing (Eurofins Genomics). Expression and purification of all LspMrs wild-type and mutants for enzyme assays were performed as described above with the following modifications: TALON® Metal Affinity Resin (Clontech) was used for IMAC purification and the detergent DDM was used for membrane solubilisation and protein purification.
(§2) The peptidase activity of LspMrs and P. aeruginosa LspA (LspPae) was quantified in a coupled gel-shift assay developed previously for LspPae[5]. The P. aeruginosa lipoprotein pre-proICP and the first two enzymes in the bacterial lipoprotein processing pathway Lgt and LspA were expressed and purified, as described. For FRET assays LspMrs was expressed and purified as described above and LspPae was expressed and purified as described in a published protocol.
(§3) Gel-shift activity assay. […] Band intensities of ICP were quantified using Image Lab. […]

[2] = biological target: T2, LspMrs R110K (Staphylococcus aureus, UniProt Q6GHN9, R110K); test: Gel-shift peptidase assay, LspMrs R110K mutant; type: biochemical, methicillin-resistant Staphylococcus aureus
T2 construct: MGSS-hexahistidine-SSGR-TEV site (ENLYFQ) (N, cleaved yes); made in house; host or cells: E. coli C43 (DE3)
Experimental: as §1, §2, §3

| Structure (SMILES) | IC50 [1] | IC50 [2] |
| --- | --- | --- |
| CCCCCC[C@H]1OC(=O)CNC(=O)[C@H]([C@H](C)O)NC(=O)[C@H](CO)NC(=O)[C@H]([C@H](C)CC)NC(=O)[C@H](CC(C)C)N(C)C(=O)[C@@H]1C [globomycin] | 2430 ± 340 nM | 1730 ± 100 nM |
| CCCC1OC(=O)C(C)CC(C)CCCCC(=O)CCCC(CC)C=CC=C(COC)CCC(O)C(O)CC(O)CNC1=O (stereo not shown) [myxovirescin, myxovirescin A1] | 290 ± 80 nM | 400 ± 30 nM |
